Usually CC50 stands for the concentration that lowers cell viability or growth by half.

1 compound from PMC9569971, “New Oxazolo[5,4-d]pyrimidines as Potential Anticancer Agents: Their Design, Synthesis, and In Vitro Biological Activity Research” (International Journal of Molecular Sciences, 2022) can be followed below.

A short description of data set [1]: MTT viability assay, L929. Type of data set: cell-based, murine. The settings on record: mouse, L929 fibroblasts, tested 1–500 µM.
The test system of data set [2] is HT29 primary colon adenocarcinoma cells. In words: Detection of apoptosis (Annexin V FITC / propidium iodide). The settings on record: 24 h. The format is cell-based, human. Further details: unit not given here. An outline of the steps: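 After 24 h growth at 30,000 cells/well, HT29 cells were treated with compound at 1, 2, 5 and 10 µM for 24 h. They were then stained with Annexin V-FITC/propidium iodide in PBS with Mg²⁺/Ca²⁺ for 20 min at 37 °C.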

The test system of data set [3] is BCL-2. The data set is described as follows: BCL-2 Human ELISA Kit, HT29 lysate. The format is cell-based. The settings on record: lysate of HT29 cells treated with 3g; SD ±0.11. On the procedure: The assay was performed on a lysate of the HT29 colon adenocarcinoma cell line treated with compound 3g. The wells of the assay microplate were coated with a BCL-2-specific antibody, and the BCL-2 present in the test and standards was bound to the antibodies adsorbed in the microwells, which were washed twice with 400 µL of washing buffer per well with careful aspiration. The washing buffer was left in the wells for 15 s before aspiration. Care was taken not to scratch the surface of the microwells. Following the final washing step, the wells were emptied and excess washing buffer was discarded. Two rows of the human standard BCL-2 were prepared at dilutions ranging from 32.0 to 0.5 ng/mL. Biotin conjugate was prepared, and 50 µL of biotin conjugate was added to all wells, covered with adhesive foil, and incubated at room temperature (18 to 25 °C) for 2 h on a microplate shaker. The adhesive film was removed and washed 3 times. […] The color change of the mixture was monitored with an ELISA reader at 620 nm. […] The results were read immediately after the stop solution was added. The reading was taken at the original wavelength of 450 nm. […]
Biological assays were performed in three independent replicates, and each replicate used four samples. […] For the assessment of cytotoxicity, mathematical models were developed using the GraphPad PRISM software, based on which CC50 was determined. […]

Data set [4] relates to lung adenocarcinoma (A549). The data set is described as follows: MTT viability assay, A549. Type of data set: cell-based, human. For orientation: Tetrazolium assays rely on reduction of a dye to a coloured formazan, in cell work by metabolically active cells.

Consider `Cc1noc(N)c1-c1nc2c(NCCCN(C)C)ncnc2o1` [Compound 3g, 2-(5-Amino-3-methylisoxazol-4-yl)-7-N-[3-(N,N-dimethylamino)propyl]aminooxazolo[5,4-d]pyrimidine], for which the CC50 in data set [1] came to 83.7 ± 4.42 µM; in data set [4] (Homo sapiens, A549, MTT, tested 1–500 µM), 138 ± 12.9 µM. Also, the apoptosis mean in data set [2] (1 μM) is listed as 3.74; in data set [2] (2 μM), 9.72; in data set [2] (5 μM), 51.54; in data set [2] (10 μM) it was 45.24. The late apoptosis mean in data set [2] (1 μM) is reported as 8.08; in data set [2] (2 μM) it was 9.30; in data set [2] (5 μM) it was 23.48; in data set [2] (10 μM) it was 29.23. Further, the necrosis mean in data set [2] (1 μM) stood at 11.28; in data set [2] (2 μM), 6.34; in data set [2] (5 μM) it was 1.18; in data set [2] (10 μM), 0.90. Besides, the “percent live (viable) cells” value in data set [2] (1 μM) is 76.90; in data set [2] (2 μM), 74.65; in data set [2] (5 μM), 23.81; in data set [2] (10 μM), 24.62. This compound showed a BCL-2 concentration in data set [3] of 0.41 ng/mL. In data set [4] (CC50 NHDF / CC50 A549), the “SI (selectivity index)” value turned out to be 1.123.
